# System: H1 human embryonic stem cells
# Experiment: Single-cell monolayer assay with EGF/FGF4, serum free, no activin A (Example 10, Table 10)
# Type: cell-based
# Method: Briefly, clusters of H1 human embryonic stem cells were grown on reduced growth factor […]™ (Invitrogen; Cat #356231)-coated tissue culture plastic. Cultures were treated with Accutase (Sigma; Cat #A6964), using equivalent volumes of […] surface area for 5 minutes at 37° C., then gently resuspended, pelleted by centrifugation, and resuspended in MEF conditioned medium for counting. For assay seeding, cells were plated at 50,000 cells/cm^2 on reduced growth factor […]™-coated 96-well black plates (Packard ViewPlates; Cat #6005182) using volumes of 100 μl/well. Cells were allowed to attach and recover log phase growth over a 3 to 5 day period, feeding daily with MEF conditioned medium supplemented with 8 ng/ml bFGF (R&D Systems; Cat #233-FB). Plates were maintained at 37° C., 5% CO2 in a humidified box throughout the duration of assay.
# Stocks of EGF and FGF4 were prepared in a 96-well polypropylene plate (Corning, Inc.; Cat #3960). Compound 22 was available as a 5 mM stock solubilized in 100% DMSO (Sigma; Cat #D2650) and stored at −80° C. Assays were initiated by aspirating culture medium from each well followed by three washes in PBS to remove residual growth factors and serum. […]
# On the second day of assay, wells were again aspirated and fed with 80 μl per well were added back containing RPMI 1640 base medium supplemented with 2.5% fatty acid free BSA, 10 ng/ml bFGF, and 3.125 μM Compound 22 plus 20 μl 5× stock of growth factors to yield a final concentration of 2% fatty acid free BSA, 8 ng/ml bFGF and 2.5 μM Compound 22 in assay. Positive control wells contained the same base medium supplemented with 2% fatty acid free BSA, 8 ng/ml bFGF and 100 ng/ml recombinant human activin A. Negative control samples contained the same base medium supplemented with 2% fatty acid free BSA and 8 ng/ml bFGF but omitted treatment with activin A.
# At the conclusion of four-days of culture, assay plates were washed twice with PBS, fixed with 4% paraformaldehyde (Alexis Biochemical; Cat #ALX-350-011) at room temperature for 20 minutes, then washed three times with PBS and permeabilized with 0.5% Triton X-100 (Sigma; Cat #T8760-2) for 20 minutes at room temperature. Cells were washed again three times with PBS and blocked with 4% chicken serum (Invitrogen; Cat #16110082) in PBS for 30 minutes at room temperature. Primary antibody (goat anti-human SOX17; R&D Systems; cat #AF1924) was diluted 1:100 in 4% chicken serum and added to each well for one hour at room temperature. Alexa Fluor 488 conjugated secondary antibody (chicken anti-goat IgG; Molecular Probes; Cat #AZ1467) was diluted 1:200 in PBS and added to each sample well after washing three times with PBS. To counterstain nuclei, 4 μg/ml Hoechst 33342 (Invitrogen; Cat #H3570) was added for ten minutes at room temperature. Plates were washed once with PBS and left in 100 μl/well PBS for imaging.
# Imaging was performed using an IN Cell Analyzer 1000 (GE Healthcare) utilizing the 51008bs dichroic for cells stained with Hoechst 33342 and Alexa Fluor 488. Exposure times were optimized from positive control wells and from untreated negative control wells stained with secondary antibody alone. Images from 15 fields per well were acquired to compensate for any cell loss during the bioassay and subsequent staining procedures. Measurements for total cell number and total SOX17 intensity were obtained from each well using IN Cell Developer Toolbox 1.7 (GE Healthcare) software. Segmentation for the nuclei was determined based on gray-scale levels (baseline range 100-300) and nuclear size. Averages and standard deviations were calculated for each replicate data set. Total SOX17 protein expression was reported as total intensity or integrated intensity, defined as total fluorescence of the cell multiplied by the area of the cell. Background was eliminated based on acceptance criteria of gray-scale ranges between 200 to 3500. […]
# [1] = No AA (with Wnt3a), FGF none, EGF none
# [2] = No AA (with Wnt3a), FGF none, EGF(25 ng/ml)
# [3] = No AA (with Wnt3a), FGF none, EGF(50 ng/ml)
# [4] = No AA (with Wnt3a), FGF none, EGF(100 ng/ml)
# [5] = No AA (with Wnt3a), FGF(25 ng/ml), EGF none
# [6] = No AA (with Wnt3a), FGF(25 ng/ml), EGF(25 ng/ml)
# [7] = No AA (with Wnt3a), FGF(25 ng/ml), EGF(50 ng/ml)
# [8] = No AA (with Wnt3a), FGF(25 ng/ml), EGF(100 ng/ml)
# [9] = No AA (with Wnt3a), FGF(50 ng/ml), EGF none
# [10] = No AA (with Wnt3a), FGF(50 ng/ml), EGF(25 ng/ml)
# [11] = No AA (with Wnt3a), FGF(50 ng/ml), EGF(50 ng/ml)
# [12] = No AA (with Wnt3a), FGF(50 ng/ml), EGF(100 ng/ml)
# [13] = No AA (with Wnt3a), FGF(100 ng/ml), EGF none
# [14] = No AA (with Wnt3a), FGF(100 ng/ml), EGF(25 ng/ml)
# [15] = No AA (with Wnt3a), FGF(100 ng/ml), EGF(50 ng/ml)
# [16] = No AA (with Wnt3a), FGF(100 ng/ml), EGF(100 ng/ml)
# [17] = No AA (without Wnt3a), FGF(50 ng/ml), EGF(50 ng/ml)
# [18] = No AA (without Wnt3a), FGF(50 ng/ml), EGF(100 ng/ml)
# [19] = No AA (without Wnt3a), FGF(100 ng/ml), EGF(50 ng/ml)
# [20] = No AA (without Wnt3a), FGF(100 ng/ml), EGF(100 ng/ml)
# [21] = Activin A (with Wnt3a), positive control
molecule,measurement,setting,value
"O=C1CCN2CCN(CC2)Cc2cc(Cl)cc(c2)Nc2ncnc(n2)-c2cncc(c2)CCCN1 [Compound 34, 5-Chloro-1,8,10,12,16,22,26,32-octaazapentacyclo[24.2.2.1˜3.7˜0.1˜9,13˜0.1˜14.18˜]tritriaconta-3(33), 4,6,9(32), 10,12,14(31), 15,17-nonaen-23-one]","Cell Number, % of positive control",[1],92.38%
same,"Cell Number, Average Total Cell Number",[1],11711
same,"Sox17 Expression, % of positive control",[1],60.68%
same,"Sox17 Expression, Average Total Intensity",[1],1.65E+08
same,"Cell Number, % of positive control",[2],126.63%
same,"Cell Number, Average Total Cell Number",[2],16052
same,"Sox17 Expression, % of positive control",[2],78.82%
same,"Sox17 Expression, Average Total Intensity",[2],2.14E+08
same,"Cell Number, % of positive control",[3],107.23%
same,"Cell Number, Average Total Cell Number",[3],13593
same,"Sox17 Expression, % of positive control",[3],71.52%
same,"Sox17 Expression, Average Total Intensity",[3],1.94E+08
same,"Cell Number, % of positive control",[4],103.90%
same,"Cell Number, Average Total Cell Number",[4],13170
same,"Sox17 Expression, % of positive control",[4],71.04%
same,"Sox17 Expression, Average Total Intensity",[4],1.93E+08
same,"Cell Number, % of positive control",[5],145.41%
same,"Cell Number, Average Total Cell Number",[5],18433
same,"Sox17 Expression, % of positive control",[5],91.72%
same,"Sox17 Expression, Average Total Intensity",[5],2.49E+08
same,"Cell Number, % of positive control",[6],148.63%
same,"Cell Number, Average Total Cell Number",[6],18841
same,"Sox17 Expression, % of positive control",[6],95.72%
same,"Sox17 Expression, Average Total Intensity",[6],2.60E+08
same,"Cell Number, % of positive control",[7],128.05%
same,"Cell Number, Average Total Cell Number",[7],16232
same,"Sox17 Expression, % of positive control",[7],84.79%
same,"Sox17 Expression, Average Total Intensity",[7],2.30E+08
same,"Cell Number, % of positive control",[8],73.44%
same,"Cell Number, Average Total Cell Number",[8],9309
same,"Sox17 Expression, % of positive control",[8],51.00%
same,"Sox17 Expression, Average Total Intensity",[8],1.39E+08
same,"Cell Number, % of positive control",[9],100.64%
same,"Cell Number, Average Total Cell Number",[9],12757
same,"Sox17 Expression, % of positive control",[9],61.10%
same,"Sox17 Expression, Average Total Intensity",[9],1.66E+08
same,"Cell Number, % of positive control",[10],139.79%
same,"Cell Number, Average Total Cell Number",[10],17720
same,"Sox17 Expression, % of positive control",[10],85.01%
same,"Sox17 Expression, Average Total Intensity",[10],2.31E+08
same,"Cell Number, % of positive control",[11],128.83%
same,"Cell Number, Average Total Cell Number",[11],16331
same,"Sox17 Expression, % of positive control",[11],83.11%
same,"Sox17 Expression, Average Total Intensity",[11],2.26E+08
same,"Cell Number, % of positive control",[12],128.87%
same,"Cell Number, Average Total Cell Number",[12],16336
same,"Sox17 Expression, % of positive control",[12],85.24%
same,"Sox17 Expression, Average Total Intensity",[12],2.32E+08
same,"Cell Number, % of positive control",[13],156.61%
same,"Cell Number, Average Total Cell Number",[13],19853
same,"Sox17 Expression, % of positive control",[13],95.45%
same,"Sox17 Expression, Average Total Intensity",[13],2.59E+08
same,"Cell Number, % of positive control",[14],156.83%
same,"Cell Number, Average Total Cell Number",[14],19880
same,"Sox17 Expression, % of positive control",[14],95.47%
same,"Sox17 Expression, Average Total Intensity",[14],2.59E+08
same,"Cell Number, % of positive control",[15],143.30%
same,"Cell Number, Average Total Cell Number",[15],18166
same,"Sox17 Expression, % of positive control",[15],86.30%
same,"Sox17 Expression, Average Total Intensity",[15],2.35E+08
same,"Cell Number, % of positive control",[16],88.68%
same,"Cell Number, Average Total Cell Number",[16],11241
same,"Sox17 Expression, % of positive control",[16],57.10%
same,"Sox17 Expression, Average Total Intensity",[16],1.55E+08
same,"Cell Number, % of positive control",[17],105.06%
same,"Cell Number, Average Total Cell Number",[17],13317
same,"Sox17 Expression, % of positive control",[17],74.08%
same,"Sox17 Expression, Average Total Intensity",[17],2.01E+08
same,"Cell Number, % of positive control",[18],111.93%
same,"Cell Number, Average Total Cell Number",[18],14189
same,"Sox17 Expression, % of positive control",[18],73.90%
same,"Sox17 Expression, Average Total Intensity",[18],2.01E+08
same,"Cell Number, % of positive control",[19],99.52%
same,"Cell Number, Average Total Cell Number",[19],12616
same,"Sox17 Expression, % of positive control",[19],66.21%
same,"Sox17 Expression, Average Total Intensity",[19],1.80E+08
same,"Cell Number, % of positive control",[20],65.23%
same,"Cell Number, Average Total Cell Number",[20],8269
same,"Sox17 Expression, % of positive control",[20],41.73%
same,SOX17 expression,"compound added to EGF and/or FGF4, single cells, no activin A",significant enhancement of SOX17 expression
"Activin A: recombinant human activin A (PeproTech), TGF-beta family member","Cell Number, % of positive control",[21],100.00%
same,"Cell Number, Average Total Cell Number",[21],12676
same,"Sox17 Expression, % of positive control",[21],100.00%
same,"Sox17 Expression, Average Total Intensity",[21],2.72E+08
